The record followed here is patent US5932580A, “PDGF receptor kinase inhibitory compounds their preparation and compositions” (priority 1997, dated 1999).

Entries after “also recorded” stand apart in the source; their conditions may differ. Read-outs that look alike come from different tables or passages of the source.

The target of data set [1] is T1, PDGF β-receptor (Sus scrofa, UniProt F1RL75).
T1 construct: PDGF-BB stimulated; immunoprecipitated with PDGF beta-receptor specific antiserum R3
The experiment in a line: PDGF induced PDGFR autophosphorylation in intact SMC cells. Type of data set: cell-based. Particulars: porcine arterial SMC; for inhibition of PDGF-BB induced PDGF β-receptor tyrosine-phosphorylation: tyrphostin 10 μM, 60 min preincubation, PDGF-BB 100 ng/ml. As to the method:
Effect of tyrphostins on PDGF induced PDGFR autophosphorylation in intact SMC cells: Subconfluent porcine arterial smooth muscle cells, cultivated in Dulbecco's modified Eagle's medium (DMEM) supplemented with 15% fetal calf serum (FCS), were synchronized for 20 hours in a medium containing 2% FCS. […] After stimulation, the cells were solubilized in Nonidet P-40 (1%) containing lysis buffer.
The analysis of PDGF p-receptor phosphorylation was performed as follows. Cell lysates were subjected to immunoprecipitation using the PDGF β-receptor specific antiserum R3 [5]. The percipitates were subjected to polyacrylamide (7.5%) gel electrophoresis in presence of sodium deducyl sulfate (SDS-PAGE) and were thereafter blotted onto a nitrocellulose membrane (Hybond C-EXTRA, Amersham). Phosphorylated proteins were detected by immunoblotting using the horseradish-peroxidase conjugated phosphotyrosine antibody RC20H (Transduction Laboratories), followed by chemoluminescence-based detection (ECL, Amersham) and autoradiography.
Detection of receptor proteins was performed as follows. Cell lysates were subjected to immunoprecipitation using the PDGF β-receptor specific antiserum R3 [5], as described above, and the percipitates washed three times and thereafter subjected to SDS-PAGE (7.5%) and blotting onto a nitrocellulose membrane (Hybond C-EXTRA, Amersham). Receptor proteins were detected by immunoblotting using the horseradish-peroxidase conjugated donkey anti-rabbit antibody (Amersham), followed by chemoluminescence-based detection (ECL, Amersham) and autoradiography.

The subject of data set [2] is PDGFR. The experiment in a line: PDGFR autophosphorylation, isolated membranes or intact Swiss 3T3 cells. Type of data set: biochemical. Particulars: read-out: IC50 (50% inhibition of phosphorylation) PDGFR. As to the method: Assay of receptor autophosphorylation in intact 3T3 cells: Confluent Swiss 3T3 cells in 24-well plates (Nunc) were incubated for 20-24 hours in serum-free DMEM. Subsequently, tyrphostins were added at concentrations ranging from 0 to 100 μM (final DMSO concentration, 0.5%) and the incubation was continued for 6-8 hours. The cells were then stimulated with 100 ng/ml PDGF-BB for 5 min at room temperature or 600 ng/ml EGF for 2.5 min on ice. The growth factor treatment was terminated by washing twice with ice-cold PBS and the cells were scraped off the wells in 60 μl lysis buffer containing 20 mM Hepes (pH 7.4), 150 mM NaCl, 1% Triton X-100, 10 mM sodium pyrophosphate, 50 mM NaF, 2 mM sodium-o-vanadate, 20 μm zinc acetate, 10 nM EDTA, 2 mM [ethylenebis(oxyethilenenitrilo)] tetraacetic acid, 1 mM phenylmethylsulfonyl fluoride, and 5 μg/ml leupeptin.
The cell lysates were clarified by centrifugation (cooled microfuge, 17,000 rpm, 15 min) and analyzed by SDS-PAGE (6.5% gels) and immunoblotting with anti-phosphotyrosine antibodies (either PY 20, ICN, and subsequently a peroxidase-coupled secondary antibody, or RC20-peroxidase conjugate, Affinity, Nottingham, United Kingdom). The blots were developed with a chemiluminescence detection system (Western Light, Tropix, or ECL, Amersham). In some experiments PDGF receptors were immunoprecipitated with PDGF-R3 or DIG-1 antibodies as described prior to the analysis by immunoblotting with anti-phosphotyrosine antibodies.
Membrane autophosphorylation assays: Membranes were prepared from confluent cultures of Swiss 3T3 cells as described. For measuring receptor autophosphorylation, 10 μg membrane protein per assay were incubated for 20 min on ice in the presence of 1.2 μg/ml EGF or 2 μg/ml PDGF, or both; 50 mM Hepes (pH 7.5); and 3 mm MnCl2 (final concentrations) in a volume of 45 μl. […] For quantification of radioactivity in electrophoresis gels, a Phospho-Imager (Molecular Dynamics, Fuji, or Bio-Rad) was used according to the instructions of the manufacturers. […]

Data set [3] has as its system porcine aortic smooth muscle cells (SMC). Description: Inhibition of cell proliferation and recovery, porcine SMC. The format is cell-based. The settings on record: for inhibitory effect on porcine SMC growth (in words) / toxicity on SMC / inhibition at 10 µM: 10 μM; for inhibitory effect on porcine SMC growth (in words): FIGS. 3-7; for toxicity on SMC / reversibility of the inhibitory effect / recovery of SMC growth after washout: porcine SMC; for inhibition at 10 µM: Sus scrofa; for reversibility of the inhibitory effect / recovery of SMC growth after washout: cultures washed, cells allowed to recover. The procedure:
Smooth muscle cells (SMC) were obtained under aseptic conditions from porcine abdominal aortas, and human internal mammary arteries (IMA). Specimens from the operating room were transferred on ice to the tissue culture room. Each artery was cut open and the endothelial surface mechanically scraped. […] The tissue fragments were then placed in an incubator at 37° C. under 9% CO2 atmosphere until SMC outgrowth was detected (typically within 3-7 days). […] For experiments testing the effect of tyrphostins on growth inhibition and recovery (see below), SMC from passages 1-3 were replated in 15 mm wells pretreated with 3 μg/cm^2 fibronectin (Biological Industries, Kibbutz Beit Haemek, Israel) at 15,000 cells/well.
Inhibition of cell proliferation and recovery: Monolayer cell growth inhibition and recovery experiments were repeated 3 or 4 times. Each experiment was performed in triplicate. […] Cultures were treated with a tyrphostin (10 μM) dissolved in 0.1% DMSO on days 1 and 3. On day 6, cultures were washed and the cells allowed to recover. Typically cells were counted on days 3 and 5 for inhibition, and on days 7, 10 and 15 for recovery, other schedules were also employed as reported below.

[4] abbreviates: 120 h, by day 5 (day given for AG1295 and AG1992), read-out: reduction in SMC count / inhibition of SMC growth over control.
[5] abbreviates: Table 2, read-out: mean reduction in SMC count compared to control cells (maximal inhibition in SMC growth).

T1 sequence (F1RL75 109-1181): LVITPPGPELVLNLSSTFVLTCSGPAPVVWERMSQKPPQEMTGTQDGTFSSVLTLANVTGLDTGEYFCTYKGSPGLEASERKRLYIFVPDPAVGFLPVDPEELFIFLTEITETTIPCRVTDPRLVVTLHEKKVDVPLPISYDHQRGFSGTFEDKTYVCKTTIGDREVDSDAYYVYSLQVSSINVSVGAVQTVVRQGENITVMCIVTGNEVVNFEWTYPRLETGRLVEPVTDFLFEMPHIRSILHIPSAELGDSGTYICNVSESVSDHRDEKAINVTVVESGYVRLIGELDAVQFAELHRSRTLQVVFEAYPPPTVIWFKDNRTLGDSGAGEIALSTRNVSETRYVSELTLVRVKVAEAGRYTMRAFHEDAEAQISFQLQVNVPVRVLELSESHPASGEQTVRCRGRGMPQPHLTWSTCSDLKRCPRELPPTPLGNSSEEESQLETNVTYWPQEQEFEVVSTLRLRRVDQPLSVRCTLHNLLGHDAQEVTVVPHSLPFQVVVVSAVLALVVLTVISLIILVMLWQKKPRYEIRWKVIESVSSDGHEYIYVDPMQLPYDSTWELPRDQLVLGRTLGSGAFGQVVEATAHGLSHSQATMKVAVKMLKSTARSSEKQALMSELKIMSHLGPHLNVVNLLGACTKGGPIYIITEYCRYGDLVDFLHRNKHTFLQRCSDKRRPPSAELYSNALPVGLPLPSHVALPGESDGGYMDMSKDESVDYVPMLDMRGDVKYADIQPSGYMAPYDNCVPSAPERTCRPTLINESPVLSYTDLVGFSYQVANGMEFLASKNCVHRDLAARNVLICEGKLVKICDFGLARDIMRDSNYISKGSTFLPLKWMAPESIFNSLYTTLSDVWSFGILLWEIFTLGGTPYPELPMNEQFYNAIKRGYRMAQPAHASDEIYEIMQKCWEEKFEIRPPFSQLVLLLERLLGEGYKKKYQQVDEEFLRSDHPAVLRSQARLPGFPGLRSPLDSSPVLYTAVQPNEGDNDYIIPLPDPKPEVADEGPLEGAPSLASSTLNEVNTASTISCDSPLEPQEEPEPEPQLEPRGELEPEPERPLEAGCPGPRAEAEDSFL

For `Cc1nc2cc3nc(-c4ccccc4)cnc3cc2n1C` [AG1851], in data set [1], the “level of PDGF β-receptor protein present in the cells” value is on record as “without affecting the level” and the “inhibition of PDGF-BB induced PDGF β-receptor tyrosine-phosphorylation” value is given as “completely inhibited”. Besides, the IC50 in data set [2] came to 5000 nM. In addition, in data set [3], the “inhibitory effect on porcine SMC growth (in words)” value is on record as “very potent growth inhibition effect; also recorded: most effective inhibitory response; also recorded: highly effective in blocking proliferation”, the “toxicity on SMC” value is reported as “without having a substantial toxic effect; also recorded: low lasting toxicity” and the “reversibility of the inhibitory effect / recovery of SMC growth after washout” value was “completely reversible; also recorded: normal cell growth appeared immediately after treatment with AG1851 was discontinued”. Further, the inhibition at 10 µM in data set [3] (setting [4]) is 79%. The inhibition at 10 µM in data set [3] (FIG. 6 experiment, read-out: maximal inhibitory effect on porcine SMC proliferation) was found to be 78%. Besides, in data set [3] (setting [5]), the inhibition at 10 µM worked out at 79%.

In the case of `Cc1nc2cc3nc(-c4cccs4)cnc3cc2n1C` [AG1992], in data set [1], the “level of PDGF β-receptor protein present in the cells” value is given as “without affecting the level” and the “inhibition of PDGF-BB induced PDGF β-receptor tyrosine-phosphorylation” value is “completely inhibited”. In addition, the IC50 in data set [2] is 1000 nM. In addition, in data set [3], the “inhibitory effect on porcine SMC growth (in words)” value is given as “very potent growth inhibition effect; also recorded: very effective proliferation inhibitors”, the “toxicity on SMC” value is “low lasting toxicity” and the “reversibility of the inhibitory effect / recovery of SMC growth after washout” value was “completely reversible”. In addition, the inhibition at 10 µM in data set [3] (setting [4]) was determined as 87%. For the same molecule, in data set [3] (FIG. 7 experiment, read-out: maximal inhibitory effect on porcine SMC proliferation), the inhibition at 10 µM was found to be 89%. In data set [3] (setting [5]), the inhibition at 10 µM worked out at 87%.

As a reminder, the IC50 is the concentration that gives 50% inhibition.
